Test results from patent US11000033B2, “Ketone or oxime compound, and herbicide” (NISSAN CHEMICAL CORPORATION, priority 2014, dated 2021).

What was measured:
Scirpus juncoides = test: Test Example 1: herbicidal activity, application before weed generation in submerged conditions (symbol B); assay type: in vivo; conditions: application herbicide amount 320 g/ha
Summary of the method: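 Mixed weed seeds sown in alluvial soil under 4 cm of water, with rice seedlings at the 2.5-leaf stage added. Same-day treatment: emulsion diluted to a set herbicide amount onto the water. Three weeks at 25–30 °C, then graded on a six-step scale.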

Lolium multiflorum Lam. = test: Test Example 5: herbicidal effect by foliage application, plastic box (symbol K); assay type: in vivo; conditions: 320 g/ha, 3 weeks after application
Summary of the method: (§1)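 Herbicide, formulated as an emulsion and diluted in water, is sprayed onto the aerial parts of 14-day seedlings. These were grown at 25° C. to 30° C. in sterilized diluvial soil; effects are graded after 3 weeks.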

[1] = system: Echinochloa crus-galli var. crus-galli; test: Test Example 4: herbicidal effect by soil treatment (symbol H); assay type: in vivo; conditions: for H: Echinochloa crus-galli var. crus-galli, herbicidal effect grade: 320 g/ha
Summary of the method: (§2)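 Seeds were sown in sterilized diluvial soil, covered with about 1.5 cm of soil, and the soil surface was sprayed with a water-diluted emulsion of the compound at a predetermined rate. Plants grew in a greenhouse at 25° C. to 30° C.; effects were scored visually 3 weeks after application.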

Amaranthus retroflexus = test: Test Example 5: herbicidal effect by foliage application, plastic box (symbol N); assay type: in vivo; conditions: 320 g/ha, 3 weeks after application
Summary of the method: as §1

rice plant = test: Test Example 5: effect on crop by foliage application, plastic box (symbol b); assay type: in vivo; conditions: 320 g/ha, 3 weeks after application
Summary of the method: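 Soil: sterilized diluvial. Container: plastic box, 21 × 13 cm, 7 cm deep. Sowing: spot-like, ~1.5 cm cover. Growth: greenhouse, 25° C. to 30° C.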

Abutilon theophrasti = test: Test Example 4: herbicidal effect by soil treatment (symbol M); assay type: in vivo; conditions: for M: Abutilon theophrasti, herbicidal effect grade: 320 g/ha
Summary of the method: as §2

Apera spica-venti = test: Test Example 5: herbicidal effect by foliage application, plastic box (symbol L); assay type: in vivo; conditions: 320 g/ha, 3 weeks after application
Summary of the method: as §1

Chenopodium album = test: Test Example 4: herbicidal effect by soil treatment (symbol O); assay type: in vivo; conditions: for O: Chenopodium album, herbicidal effect grade: 320 g/ha
Summary of the method: as §2

Galium spurium = test: Test Example 4: herbicidal effect by soil treatment (symbol Q); assay type: in vivo; conditions: for Q: Galium spurium, herbicidal effect grade: 320 g/ha
Summary of the method: as §2

[2] = application herbicide amount 320 g/ha

Structure (SMILES)	Herbicidal effect grade, B: Scirpus juncoides (Scirpus juncoides)	melting point	K: Lolium multiflorum Lam., herbicidal effect grade (Lolium multiflorum Lam.)	H (Echinochloa crus-galli var. crus-galli) herbicidal effect grade [1, 2]	N: Amaranthus retroflexus, herbicidal effect grade (Amaranthus retroflexus)	b: directly sowed rice plant, effect on crop grade (rice plant)	M (Abutilon theophrasti) herbicidal effect grade (Abutilon theophrasti; [2])	L: Apera spica-venti, herbicidal effect grade (Apera spica-venti)	O (Chenopodium album) herbicidal effect grade (Chenopodium album; [2])	Q (Galium spurium) herbicidal effect grade (Galium spurium; [2])	K: Lolium multiflorum Lam., herbicidal effect (criteria 0-5) (Lolium multiflorum Lam.)	N: Amaranthus retroflexus, herbicidal effect (criteria 0-5) (Amaranthus retroflexus)	b: directly sowed rice plant, effect on crop (criteria 0-5) (rice plant)	L: Apera spica-venti, herbicidal effect (criteria 0-5) (Apera spica-venti)	also measured
CC(CC1CC(O)=C(c2c(C)cc(C)cc2C)C1=O)=NOCC(F)(F)F (stereo not drawn) [1-028]	5 (Herbicidal ratio of 90% or more (almost completely withered))	172 to 174 °C	5 (Herbicidal ratio of 90% or more (almost completely withered))	5 (Herbicidal ratio of 90% or more (almost completely withered))	0 (Herbicidal ratio of 5% or lower (almost no effect))	5 (Herbicidal ratio of 90% or more (almost completely withered))	3 (Herbicidal ratio of 40% or higher and lower than 70%)	5 (Herbicidal ratio of 90% or more (almost completely withered))							
CON=C(CC1CC(O)=C(c2c(C)cc(C)cc2C)C1=O)C(C)C (stereo not drawn) [1-048]	4 (Herbicidal ratio of 70% or higher and lower than 90%)		5 (Herbicidal ratio of 90% or more (almost completely withered))	5 (Herbicidal ratio of 90% or more (almost completely withered))	1 (Herbicidal ratio of 5% or higher and lower than 20%)	5 (Herbicidal ratio of 90% or more (almost completely withered))	3 (Herbicidal ratio of 40% or higher and lower than 70%)	5 (Herbicidal ratio of 90% or more (almost completely withered))	0 (Herbicidal ratio of 5% or lower (almost no effect))	0 (Herbicidal ratio of 5% or lower (almost no effect))					
CON=C(C)CC1CC(OC(=O)C(C)(C)Oc2ccc(Cl)cc2)=C(c2c(C)cc(C)cc2C)C1=O (stereo not drawn) [1-051]	5 (Herbicidal ratio of 90% or more (almost completely withered))		5 (Herbicidal ratio of 90% or more (almost completely withered))	5 (Herbicidal ratio of 90% or more (almost completely withered))	1 (Herbicidal ratio of 5% or higher and lower than 20%)	5 (Herbicidal ratio of 90% or more (almost completely withered))	5 (Herbicidal ratio of 90% or more (almost completely withered))	5 (Herbicidal ratio of 90% or more (almost completely withered))	0 (Herbicidal ratio of 5% or lower (almost no effect))	0 (Herbicidal ratio of 5% or lower (almost no effect))					
CC(CC1CC(O)=C(c2c(C)cc(C)cc2C)C1=O)=NOc1ccccc1 (stereo not drawn) [1-057]	3 (Herbicidal ratio of 40% or higher and lower than 70%)	149 to 151 °C	5 (Herbicidal ratio of 90% or more (almost completely withered))	4 (Herbicidal ratio of 70% or higher and lower than 90%)	0 (Herbicidal ratio of 5% or lower (almost no effect))	3 (Herbicidal ratio of 40% or higher and lower than 70%)	3 (Herbicidal ratio of 40% or higher and lower than 70%)	1 (Herbicidal ratio of 5% or higher and lower than 20%)							
CON=C(CC1CC(O)=C(c2c(C)cc(C)cc2C)C1=O)C(C)(C)C (stereo not drawn) [1-059]	3 (Herbicidal ratio of 40% or higher and lower than 70%)	163 to 164 °C	3 (Herbicidal ratio of 40% or higher and lower than 70%)	4 (Herbicidal ratio of 70% or higher and lower than 90%)	0 (Herbicidal ratio of 5% or lower (almost no effect))	4 (Herbicidal ratio of 70% or higher and lower than 90%)	1 (Herbicidal ratio of 5% or higher and lower than 20%)	4 (Herbicidal ratio of 70% or higher and lower than 90%)							
CON=C(CC1CC1)CC1CC(O)=C(c2c(C)cc(C)cc2C)C1=O (stereo not drawn) [1-070]	0 (Herbicidal ratio of 5% or lower (almost no effect))		5 (Herbicidal ratio of 90% or more (almost completely withered))	4 (Herbicidal ratio of 70% or higher and lower than 90%)	0 (Herbicidal ratio of 5% or lower (almost no effect))	5 (Herbicidal ratio of 90% or more (almost completely withered))	0 (Herbicidal ratio of 5% or lower (almost no effect))	4 (Herbicidal ratio of 70% or higher and lower than 90%)	0 (Herbicidal ratio of 5% or lower (almost no effect))	0 (Herbicidal ratio of 5% or lower (almost no effect))					
CON=C(C)CC1CC(OC(=O)COc2cccc(C#N)c2)=C(c2c(C)cc(C)cc2C)C1=O (stereo not drawn) [1-074]	5 (Herbicidal ratio of 90% or more (almost completely withered))			5 (Herbicidal ratio of 90% or more (almost completely withered))			5 (Herbicidal ratio of 90% or more (almost completely withered))		0 (Herbicidal ratio of 5% or lower (almost no effect))	0 (Herbicidal ratio of 5% or lower (almost no effect))	5 (Herbicidal ratio of 90% or more (almost completely withered))	0 (Herbicidal ratio of 5% or lower (almost no effect))	5 (Herbicidal ratio of 90% or more (almost completely withered))	5 (Herbicidal ratio of 90% or more (almost completely withered))	
COCC(=O)OC1=C(c2c(C)cc(C)cc2C)C(=O)C(CC(C)=NOC)C1 (stereo not drawn) [1-093]	5 (Herbicidal ratio of 90% or more (almost completely withered))										5 (Herbicidal ratio of 90% or more (almost completely withered))	4 (Herbicidal ratio of 70% or higher and lower than 90%)	5 (Herbicidal ratio of 90% or more (almost completely withered))	5 (Herbicidal ratio of 90% or more (almost completely withered))	H: Echinochloa crus-galli var. crus-galli, herbicidal effect grade [1]: 5 (Herbicidal ratio of 90% or more (almost completely withered)); O: Chenopodium album, herbicidal effect grade (Chenopodium album): 0 (Herbicidal ratio of 5% or lower (almost no effect)); M: Abutilon theophrasti, herbicidal effect grade (Abutilon theophrasti): 4 (Herbicidal ratio of 70% or higher and lower than 90%); Q: Galium spurium, herbicidal effect grade (Galium spurium): 0 (Herbicidal ratio of 5% or lower (almost no effect))
CC#CC(=O)OC1=C(c2c(C)cc(C)cc2C)C(=O)C(CC(C)=NOC)C1 (stereo not drawn) [1-095]	5 (Herbicidal ratio of 90% or more (almost completely withered))										5 (Herbicidal ratio of 90% or more (almost completely withered))	3 (Herbicidal ratio of 40% or higher and lower than 70%)	5 (Herbicidal ratio of 90% or more (almost completely withered))	5 (Herbicidal ratio of 90% or more (almost completely withered))	H: Echinochloa crus-galli var. crus-galli, herbicidal effect grade [1]: 5 (Herbicidal ratio of 90% or more (almost completely withered)); O: Chenopodium album, herbicidal effect grade (Chenopodium album): 0 (Herbicidal ratio of 5% or lower (almost no effect)); M: Abutilon theophrasti, herbicidal effect grade (Abutilon theophrasti): 4 (Herbicidal ratio of 70% or higher and lower than 90%); Q: Galium spurium, herbicidal effect grade (Galium spurium): 0 (Herbicidal ratio of 5% or lower (almost no effect))
CC#Cc1cc(C)c(C2=C(OC(=O)COc3ccccc3)CC(CC(=NOC)C(C)C)C2=O)c(C)c1 (stereo not drawn) [9-003]	4 (Herbicidal ratio of 70% or higher and lower than 90%)		5 (Herbicidal ratio of 90% or more (almost completely withered))		0 (Herbicidal ratio of 5% or lower (almost no effect))	5 (Herbicidal ratio of 90% or more (almost completely withered))		5 (Herbicidal ratio of 90% or more (almost completely withered))							Herbicidal effect grade, H: Echinochloa crus-galli var. crus-galli [1, 2]: 5 (Herbicidal ratio of 90% or more (almost completely withered)); Herbicidal effect grade, O: Chenopodium album (Chenopodium album; [2]): 0 (Herbicidal ratio of 5% or lower (almost no effect)); Herbicidal effect grade, M: Abutilon theophrasti (Abutilon theophrasti; [2]): 0 (Herbicidal ratio of 5% or lower (almost no effect)); Herbicidal effect grade, Q: Galium spurium (Galium spurium; [2]): 0 (Herbicidal ratio of 5% or lower (almost no effect))
